Measurements: article PMC3742241, “Novel Hybrid Virtual Screening Protocol Based on Molecular Docking and Structure-Based Pharmacophore for Discovery of Methionyl-tRNA Synthetase Inhibitors as Antibacterial Agents” (International Journal of Molecular Sciences, 2013)
Converted amounts (≈) assume the structure as drawn.

Tests used:
[1] = test system: Klebsiella pneumoniae ATCC 700603; assay: In vitro MIC, broth microdilution, K. pneumoniae; assay type: cell-based; details: ATCC700603, 5 × 10^5 CFU/mL, 16 h at 37 °C, read-out: MIC, Gram-negative bacteria, K. pneumoniae
Description: (§1) The 15 final hit compounds were purchased and screened for preliminary in vitro antibacterial activity against our five ATCC-bacterial strain panel (Staphylococcus aureus ATCC 29213, Methicillin-resistant Staphylococcus aureus ATCC 43300, E. coli ATCC 25922, Pseudomonas aeruginosa ATCC 27853 and Klebsiella pneumoniae ATCC 700603) by using the standard broth dilution method. […] All of the 15 final hit compounds were tested against HEK293 cell lines to avoid potential cytotoxicity of normal human cells. […] Further chemical optimization is being performed to better understand the key residues for activity and selectivity.
(§2) MICs were determined using a microdilution method with Muellere Hinton Broth (MHB) for Staphylococci and Lennox Broth (LB) for Enterococci, following the National Committee for Clinical Laboratory Standards (NCCLS) (now called the Clinical Laboratory Standards Institute [CLSI]). The stock solutions of the test compounds were diluted to give a two-fold series, with final chemical concentrations ranging from […].

[2] = test system: Staphylococcus aureus ATCC 29213; assay: In vitro MIC, broth microdilution, S. aureus; assay type: cell-based; details: ATCC29213, 5 × 10^5 CFU/mL, 16 h at 37 °C, read-out: MIC, Gram-positive bacteria, S. aureus
Description: as §1, §2

[3] = In vitro cytotoxicity assay (MTT); assay type: cell-based, Human; details: human; HEK293 cells; 48 h; MTT
Description: as §1
(§3) Human Embryonic Kidney 293 cell line (HEK293) was acquired from ATCC. The cells were cultured in DMEM medium (Gibco-BRL, Invitrogen Co. Ltd., Carlsbad, CA, USA) supplemented with 10% (v/v) fetal bovine serum plus 100 μg/mL amikacin. The cells were maintained in a 37 °C humidified incubator with 5% CO2 atmosphere. Analysis of in vitro cytotoxicity was performed in the presence of compounds or blank solvent on cell lines seeded in 96-well plates at the density of 2 × 10^3 cells/well in serum-containing media. After 24 h incubation at 37 °C, the cells were treated with different concentrations of compounds along with a blank solvent. The cells were incubated in these conditions for 48 h. The cell viability was assessed with the 3-(4,5-dimethylthiazol-2-yl)-2,5-diphenyltetrazolium bromide (MTT) method, as previously described.

[4] = test system: Methicillin-resistant Staphylococcus aureus ATCC 43300; assay: In vitro MIC, broth microdilution, MRSA; assay type: cell-based; details: 5 × 10^5 CFU/mL, 16 h at 37 °C, read-out: MIC, Gram-positive bacteria, MRSA
Description: as §1, §2

[5] = test system: Escherichia coli ATCC 25922; assay: In vitro MIC, broth microdilution, E. coli; assay type: cell-based; details: ATCC25922, 5 × 10^5 CFU/mL, 16 h at 37 °C, read-out: MIC, Gram-negative bacteria, E. coli
Description: as §1, §2

[6] = test system: Pseudomonas aeruginosa ATCC 27853; assay: In vitro MIC, broth microdilution, P. aeruginosa; assay type: cell-based; details: ATCC27853, 5 × 10^5 CFU/mL, 16 h at 37 °C, read-out: MIC, Gram-negative bacteria, P. aeruginosa
Description: as §1, §2

[7] = test system: HEK293 cells; assay: In vitro cytotoxicity assay (MTT); assay type: cell-based, Human
Description: as §1, §3

COc1cc(CNCCc2ccc(S(N)(=O)=O)cc2)ccc1OCC(=O)NC(C)(C)C [ZINC19922703]
MIC [1]: 64 µg/mL (≈ 142 µM)
MIC [2]: 32 µg/mL (≈ 71.2 µM)
IC50 at 48 h [3]: > 20 µM
MIC [4]: 64 µg/mL (≈ 142 µM)
MIC [5]: 64 µg/mL (≈ 142 µM)
MIC [6]: 32 µg/mL (≈ 71.2 µM)

Cc1sc(NC(=O)c2ccco2)c(C(Nc2ccccn2)c2ccccc2)c1C (centres unmarked) [ZINC02709613]
MIC [1]: 64 µg/mL (≈ 159 µM)
MIC [2]: 64 µg/mL (≈ 159 µM)
IC50 at 48 h [3]: > 20 µM
MIC [4]: 64 µg/mL (≈ 159 µM)
MIC [5]: 64 µg/mL (≈ 159 µM)
MIC [6]: 16 µg/mL (≈ 39.7 µM)

CC1CCCc2sc3nc(SCC(=O)NC(=O)Nc4ccccc4)n(N)c(=O)c3c21 (centres unmarked) [ZINC19797059]
MIC [1]: 64 µg/mL (≈ 144 µM)
MIC [2]: 32 µg/mL (≈ 72.1 µM)
IC50 at 48 h [3]: > 20 µM
MIC [4]: 32 µg/mL (≈ 72.1 µM)
MIC [5]: 64 µg/mL (≈ 144 µM)
MIC [6]: 64 µg/mL (≈ 144 µM)

CC1CCCc2sc3c(=O)n(N)c(SCC(=O)NC(=O)Nc4ccccc4)nc3c21 (centres unmarked) [ZINC19797060]
MIC [1]: 64 µg/mL (≈ 144 µM)
MIC [2]: 32 µg/mL (≈ 72.1 µM)
IC50 at 48 h [3]: > 20 µM
MIC [4]: 64 µg/mL (≈ 144 µM)
MIC [5]: 64 µg/mL (≈ 144 µM)
MIC [6]: 16 µg/mL (≈ 36.1 µM)

Cc1ccccc1C(=O)N1CCN(CCNC(=O)C(=O)Nc2ccc(Br)cc2)CC1 [ZINC08452043]
MIC [1]: 32 µg/mL (≈ 67.6 µM)
MIC [2]: 8 µg/mL (≈ 16.9 µM)
IC50 at 48 h [3]: 10.2 µM
MIC [4]: 16 µg/mL (≈ 33.8 µM)
MIC [5]: 16 µg/mL (≈ 33.8 µM)
MIC [6]: 8 µg/mL (≈ 16.9 µM)

COc1ccc(C(=O)N2CCN(CCNC(=O)C(=O)Nc3ccccc3)CC2)cc1 [ZINC04380079]
MIC [1]: 64 µg/mL (≈ 156 µM)
MIC [2]: 32 µg/mL (≈ 78 µM)
IC50 at 48 h [3]: 6.84 µM
MIC [4]: 64 µg/mL (≈ 156 µM)
MIC [5]: 64 µg/mL (≈ 156 µM)
MIC [6]: 64 µg/mL (≈ 156 µM)

CCc1ccc(NC(=O)C(=O)NCCN2CCN(C(=O)c3ccc(Cl)cc3Cl)CC2)cc1 [ZINC06843697]
MIC [1]: 64 µg/mL (≈ 134 µM)
MIC [2]: 4 µg/mL (≈ 8.38 µM)
IC50 at 48 h [3]: > 20 µM
Cytotoxicity to HEK293 cells (in words) [7]: non-cytotoxicity
MIC [4]: 4 µg/mL (≈ 8.38 µM)
MIC [5]: 16 µg/mL (≈ 33.5 µM)
MIC [6]: 8 µg/mL (≈ 16.8 µM)

CC1(C)Cc2c(ccc3ccccc23)C(NNC(=O)c2cccc(N)c2)=N1 [ZINC00729256]
MIC [1]: 16 µg/mL (≈ 44.6 µM)
MIC [2]: 8 µg/mL (≈ 22.3 µM)
IC50 at 48 h [3]: > 20 µM
Cytotoxicity to HEK293 cells (in words) [7]: non-cytotoxicity
MIC [4]: 16 µg/mL (≈ 44.6 µM)
MIC [5]: 32 µg/mL (≈ 89.3 µM)
MIC [6]: 4 µg/mL (≈ 11.2 µM)

O=C(NCCN1CCN(C(=O)c2ccc(Cl)cc2Cl)CC1)C(=O)Nc1ccc(Br)cc1 [ZINC08451958]
MIC [1]: 64 µg/mL (≈ 121 µM)
MIC [2]: 32 µg/mL (≈ 60.6 µM)
IC50 at 48 h [3]: > 20 µM
MIC [4]: 32 µg/mL (≈ 60.6 µM)
MIC [5]: 64 µg/mL (≈ 121 µM)
MIC [6]: 64 µg/mL (≈ 121 µM)

CNC(=O)NC(=O)CSc1nc2sc(-c3ccccc3)cc2c(=O)n1N [ZINC02181060]
MIC [1]: 32 µg/mL (≈ 82.2 µM)
MIC [2]: 4 µg/mL (≈ 10.3 µM)
IC50 at 48 h [3]: 15.4 µM
MIC [4]: 16 µg/mL (≈ 41.1 µM)
MIC [5]: 8 µg/mL (≈ 20.5 µM)
MIC [6]: 16 µg/mL (≈ 41.1 µM)

Cc1ccc2c(c1)c1c3n2CCN(CC(=O)CNNC(=O)c2ccccc2)C3CCC1 (centres unmarked) [ZINC08430843]
MIC [1]: 64 µg/mL (≈ 154 µM)
MIC [2]: 16 µg/mL (≈ 38.4 µM)
IC50 at 48 h [3]: > 20 µM
MIC [4]: 32 µg/mL (≈ 76.8 µM)
MIC [5]: 64 µg/mL (≈ 154 µM)
MIC [6]: 32 µg/mL (≈ 76.8 µM)

CCCCCCCC[n+]1cccc(C(=O)N2CCNc3nc(NC(=O)C(C)C)[nH]c(=O)c32)c1 [ZINC08384332]
MIC [1]: 64 µg/mL
MIC [2]: 32 µg/mL
IC50 at 48 h [3]: > 20 µM
MIC [4]: 32 µg/mL
MIC [5]: 32 µg/mL
MIC [6]: 16 µg/mL

CCCC[n+]1c(N)c(C(=O)NCc2ccc(C)cc2)cc2c(=O)n3cccc(C)c3nc21 [ZINC02424508]
MIC [1]: 64 µg/mL
MIC [2]: 16 µg/mL
IC50 at 48 h [3]: > 20 µM
MIC [4]: 32 µg/mL
MIC [5]: 16 µg/mL
MIC [6]: 64 µg/mL

Cc1ccc2ccc([C@H](Nc3ccccn3)c3ccc(C)c(C)c3)c(O)c2n1 [ZINC02086896]
MIC [1]: 64 µg/mL (≈ 173 µM)
MIC [2]: 32 µg/mL (≈ 86.6 µM)
IC50 at 48 h [3]: 3.15 µM
MIC [4]: 64 µg/mL (≈ 173 µM)
MIC [5]: 32 µg/mL (≈ 86.6 µM)
MIC [6]: 16 µg/mL (≈ 43.3 µM)

CN(C)CCCNC(=O)c1ccccc1NC(=O)c1ccc(-c2ccccc2)cc1 [ZINC10312776]
MIC [1]: 32 µg/mL (≈ 79.7 µM)
MIC [2]: 64 µg/mL (≈ 159 µM)
IC50 at 48 h [3]: > 20 µM
MIC [4]: 64 µg/mL (≈ 159 µM)
MIC [5]: 64 µg/mL (≈ 159 µM)
MIC [6]: 16 µg/mL (≈ 39.8 µM)
